According to the NIST ThermoML archive (doi:10.1021/je100177u):
Numbers after ± are expanded uncertainties.

Conditions: 298.15 K; for surface tension liquid-gas: Drop volume; for mass density: 101.33 kPa, Liquid

SMILES	surface tension liquid-gas [mN/m]	mass density [kg/m3]
CCCCCl [1-chlorobutane]	23.29 ± 0.18	880.69 ± 0.61
CC(C)CO [2-methyl-1-propanol]	22.47 ± 0.15	797.77 ± 0.62
CC(C)(C)O [2-methylpropan-2-ol]	20.3 ± 0.14	780.78 ± 0.65

The remaining lines, values ahead:

surface tension liquid-gas [mN/m]	mass density [kg/m3]	SMILES
24.25 ± 0.15	805.8 ± 0.29	CCCCO [butan-1-ol]
23.08 ± 0.18	802.44 ± 0.73	CCC(C)O (configuration not stated) [butan-2-ol]
18.06 ± 0.16	655.07 ± 0.98	CCCCCC [hexane]
